# Source: patent publication US20240208992A1, “MACROCYCLES AS CFTR MODULATORS” (Idorsia Pharmaceuticals Ltd, priority 2021, published 2024)
# Target: human F508del-CFTR (Homo sapiens, UniProt P13569, DEL508-508)
# Assay: F508del-CFTR cell surface expression (corrector activity), DiscoveRx ß-galactosidase complementation chemiluminescence assay in recombinant U2OS cell line;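 also: U2OS cells co-expressing ProLink-tagged F508del-CFTR and a membrane-anchored enzyme acceptor, where more surface CFTR restores β-galactosidase activity measured by chemiluminescence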
# Conditions: U2OS cell line, 16h compound incubation; for EC50: EC50, F508del-CFTR cell surface expression, geomean values; for Emax: U2OS, in relation to the Emax of the corrector lumacaftor (=100%), arithmetic mean values
# Chain of human F508del-CFTR (P13569 with tags, fused parts or gaps DEL508-508): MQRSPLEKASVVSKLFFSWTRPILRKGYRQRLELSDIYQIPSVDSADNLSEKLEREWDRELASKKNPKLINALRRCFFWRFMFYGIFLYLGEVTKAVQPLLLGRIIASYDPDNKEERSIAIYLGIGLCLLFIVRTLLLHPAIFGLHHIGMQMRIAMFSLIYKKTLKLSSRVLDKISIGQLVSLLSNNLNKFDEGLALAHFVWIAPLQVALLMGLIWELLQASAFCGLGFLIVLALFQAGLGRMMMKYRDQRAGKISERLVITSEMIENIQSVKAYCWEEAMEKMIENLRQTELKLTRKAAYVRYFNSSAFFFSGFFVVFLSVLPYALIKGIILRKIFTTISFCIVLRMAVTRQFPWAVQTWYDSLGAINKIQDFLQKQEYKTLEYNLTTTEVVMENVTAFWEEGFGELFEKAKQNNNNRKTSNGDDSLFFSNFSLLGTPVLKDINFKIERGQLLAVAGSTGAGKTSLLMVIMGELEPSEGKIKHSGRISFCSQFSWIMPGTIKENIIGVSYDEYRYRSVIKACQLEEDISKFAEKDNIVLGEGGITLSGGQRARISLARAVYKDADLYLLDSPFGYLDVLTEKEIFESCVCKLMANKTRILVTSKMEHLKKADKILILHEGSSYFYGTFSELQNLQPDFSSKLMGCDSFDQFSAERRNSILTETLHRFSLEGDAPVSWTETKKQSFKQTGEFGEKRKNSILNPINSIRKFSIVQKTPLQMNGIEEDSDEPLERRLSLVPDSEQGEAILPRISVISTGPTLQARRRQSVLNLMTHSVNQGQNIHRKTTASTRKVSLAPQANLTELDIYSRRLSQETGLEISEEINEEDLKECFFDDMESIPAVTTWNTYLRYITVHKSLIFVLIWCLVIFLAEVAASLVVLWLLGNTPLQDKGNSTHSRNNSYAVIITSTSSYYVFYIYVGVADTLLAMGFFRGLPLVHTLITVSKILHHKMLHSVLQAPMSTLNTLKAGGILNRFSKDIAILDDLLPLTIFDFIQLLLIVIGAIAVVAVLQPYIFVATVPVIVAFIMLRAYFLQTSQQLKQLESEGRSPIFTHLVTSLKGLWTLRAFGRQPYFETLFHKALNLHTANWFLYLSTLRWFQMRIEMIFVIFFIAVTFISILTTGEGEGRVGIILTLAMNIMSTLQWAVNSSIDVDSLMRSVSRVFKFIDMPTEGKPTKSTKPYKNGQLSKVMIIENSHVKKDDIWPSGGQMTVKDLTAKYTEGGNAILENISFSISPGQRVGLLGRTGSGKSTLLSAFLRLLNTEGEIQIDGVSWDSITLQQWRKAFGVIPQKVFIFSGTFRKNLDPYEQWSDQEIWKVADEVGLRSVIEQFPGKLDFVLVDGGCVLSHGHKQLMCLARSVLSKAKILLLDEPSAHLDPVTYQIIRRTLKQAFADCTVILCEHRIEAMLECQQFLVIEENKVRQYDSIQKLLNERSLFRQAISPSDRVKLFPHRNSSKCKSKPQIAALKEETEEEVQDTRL
Structure (SMILES),EC50,Emax
"COc1cc(CCNC(=O)[C@@H]2CC(=O)N(C)[C@@H](CC(C)C)C(=O)N3CCCC[C@@H]3C(=O)N[C@H](Cc3ccccc3)COc3cnc4ccccc4c3C(=O)N2)ccc1F [Example 91, (9S,13S,19aR,22R)-22-benzyl-N-(4-fluoro-3-methoxyphenethyl)-13-isobutyl-12-methyl-7,11,14,20-tetraoxo-7,8,9,10,11,12,13,14,17,18,19,19a,20,21,22,23-hexadecahydro-16H-pyrido[2′,1′:6,7][1]oxa[4,7,10,14]tetraazacycloheptadecino[17,16-c]quinoline-9-carboxamide]",466 nM,210%
"Cc1ccc(F)c(CCNC(=O)[C@@H]2CC(=O)N(C)[C@@H](CC(C)C)C(=O)N3CCCC[C@@H]3C(=O)N[C@H](Cc3ccccc3)COc3cnc4ccccc4c3C(=O)N2)c1 [Example 92, (9S,13S,19aR,22R)-22-benzyl-N-(2-fluoro-5-methylphenethyl)-13-isobutyl-12-methyl-7,11,14,20-tetraoxo-7,8,9,10,11,12,13,14,17,18,19,19a,20,21,22,23-hexadecahydro-16H-pyrido[2′,1′:6,7][1]oxa[4,7,10,14]tetraazacycloheptadecino[17,16-c]quinoline-9-carboxamide]",289 nM,256%
"COc1cc(CCNC(=O)[C@@H]2CC(=O)N(C)[C@@H](CC(C)C)C(=O)N3CCCC[C@@H]3C(=O)N[C@H](Cc3ccccc3)COc3cnc4ccccc4c3C(=O)N2)ccc1-n1nccn1 [Example 93, (9S,13S,19aR,22R)-22-benzyl-13-isobutyl-N-(3-methoxy-4-(2H-1,2,3-triazol-2-yl)phenethyl)-12-methyl-7,11,14,20-tetraoxo-7,8,9,10,11,12,13,14,17,18,19,19a,20,21,22,23-hexadecahydro-16H-pyrido[2′,1′:6,7][1]oxa[4,7,10,14]tetraazacycloheptadecino[17,16-c]quinoline-9-carboxamide]",777 nM,189%
"CC(C)C[C@H]1C(=O)N2CCCC[C@@H]2C(=O)N[C@H](Cc2ccccc2)COc2cnc3ccccc3c2C(=O)N[C@H](C(=O)NCCc2ccc(F)cc2F)CC(=O)N1C [Example 94, (9S,13S,19aR,22R)-22-benzyl-N-(2,4-difluorophenethyl)-13-isobutyl-12-methyl-7,11,14,20-tetraoxo-7,8,9,10,11,12,13,14,17,18,19,19a,20,21,22,23-hexadecahydro-16H-pyrido[2′,1′:6,7][1]oxa[4,7,10,14]tetraazacycloheptadecino[17,16-c]quinoline-9-carboxamide]",257 nM,201%
"COc1ccc(CCNC(=O)[C@@H]2CC(=O)N(C)[C@@H](CC(C)C)C(=O)N3CCCC[C@@H]3C(=O)N[C@H](Cc3ccccc3)COc3cnc4ccccc4c3C(=O)N2)cc1C [Example 95, (9S,13S,19aR,22R)-22-benzyl-13-isobutyl-N-(4-methoxy-3-methylphenethyl)-12-methyl-7,11,14,20-tetraoxo-7,8,9,10,11,12,13,14,17,18,19,19a,20,21,22,23-hexadecahydro-16H-pyrido[2′,1′:6,7][1]oxa[4,7,10,14]tetraazacycloheptadecino[17,16-c]quinoline-9-carboxamide]",250 nM,178%
"Cc1cccc(CCNC(=O)[C@@H]2CC(=O)N(C)[C@@H](CC(C)C)C(=O)N3CCCC[C@@H]3C(=O)N[C@H](Cc3ccccc3)COc3cnc4ccccc4c3C(=O)N2)c1 [Example 96, (9S,13S,19aR,22R)-22-benzyl-13-isobutyl-12-methyl-N-(3-methylphenethyl)-7,11,14,20-tetraoxo-7,8,9,10,11,12,13,14,17,18,19,19a,20,21,22,23-hexadecahydro-16H-pyrido[2′,1′:6,7][1]oxa[4,7,10,14]tetraazacycloheptadecino[17,16-c]quinoline-9-carboxamide]",425 nM,206%
